Laboratory results taken from patent US5756505A, “N-acylpiperazine derivative, antibacterial drug and anti-ulcer drug” (Shiseido Co., Ltd., priority 1995, dated 1998).
Values after ≈ are worked out from the molar mass of the structure shown. Read-outs that look alike come from different tables or passages of the source.

Tests used:
stress ulcer formation = experiment: WIS: Restraint and Water Immersion Stress-Induced Ulcer Inhibition Test; assay type: in vivo, rat (male Crj:SD or Slc:SD); details: rat; for WIS: ulcer formation inhibitory rate: 100 mg/kg oral, 7 hours stress; for anti-ulcer effect (in words): in vivo
Experimental: WIS: Restraint and Water Immersion Stress-Induced Ulcer Inhibition Test
The degree of inhibition of the stress ulcer formation is tested.
Male Crj:SDor Slc:SD rats (6 to 7-week-old) were fasted overnight, but allowed free access to water. Each group has 5 to 8 of these rats. The sample compound was dissolved or suspended in an aqueous solution of 0.3% sodium carboxymethylcellulose or 0.05% Tween 80 and then was orally administered (100 mg/10 ml/kg). To a control group, the vehicle was administered. 10 minuts later, the rats were placed in a stress cage and immersed to the level of xipfoid process in a water bath (21° C.) for 7 hours. At the end of the stress, the rats were sacrificed by inhalation of ether or carbon dioxide. Then, the stomach of each was removed, inflated by injecting 10 ml of 5% formalin neutral buffer solution, and immersed in 1% formalin neutral buffer solution for 30 minutes or more to be fixed. The stomach was incised along the greater curvature and then the length of each erosion in the glandular portion was determined under dissecting microscope. The sum of the length of erosions per stomach was defined as ulcer index (UI).
The effect obtained when 100 mg/kg of the sample compound had been administered was expressed as ulcer formation inhibitory rate (%) as follows:
ulcer formation inhibitory rate (%)=[1-(UI in sample group/UI in control group)]×100

Helicobacter pyroli = experiment: AHP: Antibacterial Activity Test Against Helicobacter pyroli; assay type: cell-based, Helicobacter pyroli NCTC 11637; details: for MIC: Helicobacter, NCTC11637, 168 h, H. pyroli NCTC 11637, agar dilution, 7 days, read-out: AHP: minimum inhibitory concentration (MIC)
Experimental: AHP: Antibacterial […] Against Helicobacter pyroli i)Meaning The minimum inhibitory concentration (MIC) against Helicobacter pyroli (microaerophilic gram-negative bacterium which is supposed to deeply involve in pathogenesis, relapse, and recrudescence of ulcer, referred to as "HP" in the following) is measured so as to find out compounds which have antimicrobial activity against Helicobacter pyroli. ii)Method MICs were determined by the agar dilution method. […] Grown colonies were transfered to the same plate and cultured for 3 days under the same condition. […] A 1,000 μg/ml solution of the sample compound containing DMSO not more than 25% was […] diluted 2-fold in sterile purified water. 100 μl volume from each dilution was mixed thoroughly with 900 μl of brucella agar supplemented with 5% horse blood and solidified in a 24 well micro plate. 10 μl of the bacterial suspension (about 10^3 cfu) was inoculated on this plate and cultured for 7 days under the same condition as that of preculture.

[1] = MTT: Cell Damaging and Protecting Effect Test; assay type: cell-based, rabbit (male Japanese White); details: rabbit, gastric mucosal cells
From the text: MTT: Cell Damaging and Protecting Effect Test
It is confirmed that there is no toxicity in cell level. Those having a toxicity in cell level are inappropriate as an anti-ulcer drug.
A male Japanese White rabbit (2.5 to 3 kg) was anesthetized to death by Nembutal™ and, immediately thereafter, its stomach was removed. The greater curvature of the stomach was incised so as to remove the stomach contents therefrom. After the mucosal surface was washed with HBSS (Hanks' Balanced Salt Solution), the stomach in ice-cooled HBSS was transferred to a laboratory. Then, after the pyloric antrum was removed, the gastric corpus mucosa was separated by a spatula and then minced into 2 to 3 mm^3 pieces in BME (Basal Medium Eagle). Thereafter, these pieces were shaken at 120 to 130 cycles/minute for 15 minutes at 37° C. in BME 60ml containig 280 U/ml of dispase and 30 to 50 U/ml of collagenase. Here, the concentration of collagenase was appropriately changed for each lot in view of the state of cells. The pieces were washed twice with EBSS (Earle's Balanced Salt Solution) containing 1 mM of EDTA and then shaken in MEM (Minimum Essential Medium) containing 1 mM of EDTA at 37° C. for 5 minutes. Subsequently, they were shaken in the dispase and collagenase having the same concentrations as those mentioned above for 15 minutes so as to remove the supernatant and then further shaken at 37° C. for 50 to 60 minutes at 120 to 130 cycles/minute. Then, after being washed twice with HBSS, Ham F12 containing 2% of Ultrocer G™ was used to attain the concentration of 1×10^6 cells/ml. Thus formed suspension was dispensed in each well of a 96-well plate by 200 μl. The plate was incubated in the atmosphere composed of 5% CO2 and 95% air at 37° C. for three days so as to attain a confluent state and then subjected to MTT assay.
The sample compound was dissolved in DMSO so as to attain a concentration of 10^-2 M and then diluted with HBSS containing 2% of Ultrocer G™ so as to attain a final concentration of 10^-4 M. To each group, which 8 wells were used for, 10 μl of MTT reagent were added immediately after 100 μl of the medium in each well were exchanged for same volume of the resulting solution of the sample compound. After being incubated in an atmosphere composed of 5% CO2 and 95% air at 37° C. for 4 hours, thus formed solution was centrifuged and then its supernatant was discarded. Subsequently, 100 μl of 100% ethanol were added to the residue so as to dissolve MTT formazan. Then, the absorbance (OD: 570 to 630) was measured by a microplate reader. This method utilizes a phenomenon in which MTT is changed to MTT formazan only by mitochondria of living cells so as to change color.
The cell damaging or cell protecting effect of the sample compound at the final concentration of 10^-4 M was expressed as cell damaging rate (%) as follows:
cell damaging rate (%)=[1-(absorbance in sample group/absorbance in control group)]×100
Accordingly, the smaller value is better in the cell damaging rate.

[2] = final concentration 10^-4 M, 4 hours, smaller value is better, read-out: MTT: cell damaging rate

SMILES | WIS: ulcer formation inhibitory rate (stress ulcer formation) | MIC (Helicobacter pyroli) | cytotoxicity at 4 h, 100 µM [1, 2] | anti-ulcer effect (in words) (stress ulcer formation) | antibacterial activity against Helicobacter pyroli (in words) (Helicobacter pyroli) | cytotoxicity at 4 h, 100 µM ([1]; MTT: cell damaging rate)
CC(C)Cc1cc(C(=O)N2CCN(CC(C)C)CC2)ccc1OCc1ccc([N+](=O)[O-])cc1.Cl [Example 13, 1-isobutyl-4-[3-isobutyl-4-(4-nitrobenzyloxy)benzoyl]piperazine hydrochloride] | 77% | 12.5 µg/mL | -66% |  |  | 
CC(C)CN1CCN(C(=O)c2ccc(OCc3ccccc3)cc2)CC1 [Example 3, 1-(4-benzyloxybenzoyl)-4-isobutylpiperazine] | 69% |  | -16% |  |  | 
C=C(C)Cc1cc(C(=O)N2CCN(CC(C)C)CC2)ccc1OCc1ccc(F)cc1.Cl [Example 4, 1-[4-(4-fluorobenzyloxy)-3-methallylbenzoyl]-4-isobutylpiperazine hydrochloride] | 65% | 25 µg/mL | -67% |  |  | 
Cc1cccc(COc2ccc(C(=O)N3CCN(CC(C)C)CC3)cc2CC(C)C)c1F.Cl [Example 12, 1-[4-(2-fluoro-3-methylbenzyloxy)-3-isobutylbenzoyl]-4-isobutylpiperazine hydrochloride] | 83% |  | -15% |  |  | 
CC(C)Cc1cc(C(=O)N2CCN(CC(C)C)CC2)ccc1OCc1ccc(F)cc1.Cl [Example 22, 1-[4-(4-fluorobenzyloxy)-3-isobutylbenzoyl]-4-isobutylpiperazine hydrochloride] | 85% | 12.5 µg/mL |  | improved | improved | 
CC(C)Cc1cc(C(=O)N2CCN(CC(C)C)CC2)ccc1OCc1ccc(Cl)cc1 [Example 17, 1-[4-(4-chlorobenzyloxy)-3-isobutylbenzoyl]-4-isobutylpiperazine] | 66% | 12.5 µg/mL (≈ 28.2 µM) | -18% |  |  | 
CC(C)Cc1cc(C(=O)N2CCN(CC(C)C)CC2)ccc1OCc1ccc(F)c(F)c1 [Example 26, 1-[4-(3,4-difluorobenzyloxy)-3-isobutylbenzoyl]-4-isobutylpiperazine] | 63% | 12.5 µg/mL (≈ 28.1 µM) |  |  |  | 
CC(C)Cc1cc(C(=O)N2CCN(CC(C)C)CC2)ccc1OCc1ccccc1F [Example 18, 1-[4-(2-fluorobenzyloxy)-3-isobutylbenzoyl]-4-isobutylpiperazine] | 64% | 12.5 µg/mL (≈ 29.3 µM) |  |  |  | 
CC(C)Cc1cc(C(=O)N2CCN(C(=O)C(C)C)CC2)ccc1OCc1ccc(F)cc1 [Example 6, 1-[4-(4-fluorobenzyloxy)-3-isobutylbenzoyl]-4-isobutyrylpiperazine] | 56% | < 3.13 µg/mL | -29% | sufficient effects |  | 
CC(C)Cc1cc(CN2CCN(CC(C)C)CC2)ccc1OCc1ccc(F)cc1.Cl.Cl [Example 20, 1-[4-(4-fluorobenzyloxy)-3-isobutylbenzyl]-4-isobutylpiperazine dihydrochloride] | 82% |  | 45% | effects were observed |  | 
COc1ccc(COc2ccc(C(=O)N3CCN(CC(C)C)CC3)cc2CC(C)C)cc1 [Example 14, 1-isobutyl-4-[3-isobutyl-4-(4-methoxybenzyloxy)benzoyl]piperazine] | 76% | 25 µg/mL (≈ 57 µM) | 11% |  |  | 
CC(C)CN1CCN(C(=O)c2ccc(OCc3ccc(F)cc3)cc2)CC1 [Example 5, 1-[4-(4-fluorobenzyloxy)benzoyl]-4-isobutylpiperazine] | 59% | 12.5 µg/mL (≈ 33.7 µM) |  |  |  | 
CC(C)Cc1cc(C(=O)N2CCN(CC(C)C)CC2)ccc1OCc1ccccc1F.Cl [Example 19, 1-[4-(2-fluorobenzyloxy)-3-isobutylbenzoyl]-4-isobutylpiperazine hydrochloride] | 64% |  |  |  |  | 
CC(C)Cc1cc(C(=O)N2CCN(CCO)CC2)ccc1OCc1ccc(F)cc1 [Example 9, 1-[4-(4-fluorobenzyloxy)-3-isobutylbenzoyl]-4-(2-hydroxyethyl)piperazine] | 88% |  | 26% | sufficient effects |  | 
CC(C)Cc1cc(C(=O)N2CCN(CC(C)C)CC2)ccc1OCc1ccc(F)cc1 [Example 21, 1-[4-(4-fluorobenzyloxy)-3-isobutylbenzoyl]-4-isobutylpiperazine] | 84% |  |  | improved | improved | 
CC(C)Cc1cc(C(=O)N2CCN(CC(C)C)CC2)ccc1OCc1ccc(F)cc1F.Cl [Example 24, 1-[4-(2,4-difluorobenzyloxy)-3-isobutylbenzoyl]-4-isobutylpiperazine hydrochloride] | 72% | 6.25 µg/mL |  |  |  | 
CC(C)Cc1cc(C(=O)N2CCN(CC(C)C)CC2)ccc1OCc1ccc(F)cc1F [Example 27, 1-[4-(2,4-difluorobenzyloxy)-3-isobutylbenzoyl]-4-isobutylpiperazine] | 60% | 6.25 µg/mL (≈ 14.1 µM) |  |  |  | 
CC(C)CN1CCN(C(=O)c2ccc(OCc3ccc(F)cc3)cc2)CC1.Cl [Example 2, 1-[4-(4-fluorobenzyloxy)benzoyl]-4-isobutylpiperazine hydrochloride] | 79% |  |  |  |  | 
CC(C)Cc1cc(CC(=O)N2CCN(CC(C)C)CC2)ccc1OCc1ccccc1 [Example 15, 1-(4-benzyloxy-3-isobutylphenylacetyl)-4-isobutylpiperazine] | 71% |  |  | sufficient effects were observed |  | -55%
CC(C)CN1CCN(C(=O)c2ccc(OCc3ccc(F)cc3)c([N+](=O)[O-])c2)CC1.Cl [Example 8, 1-[4-(4-fluorobenzyloxy)-3-nitrobenzoyl]-4-isobutylpiperazine hydrochloride] | 35% |  | -65% |  |  | 
CC(C)Cc1cc(C(=O)N2CCN(CC(C)C)CC2)ccc1OCc1ccc(F)cc1.O=C(O)C(=O)O [Example 25, 1-[4-(4-fluorobenzyloxy)-3-isobutylbenzoyl]-4-isobutylpiperazine oxalate] | 70% | 12.5 µg/mL |  |  |  | 
